Assays:
[1] = test system: mice (isoniazid-induced clonic convulsion); assay: Isoniazid-induced clonic convulsion test (anti-convulsant effect); assay type: in vivo, mouse; conditions: male Std-ddY mice, oral, 30 minutes before isoniazid 200 mg/kg s.c.; dose prolonging onset time by 25%
Description: Experiment 3: Isoniazid-induced Clonic Convulsion Test (Anti-convulsant Effect)
Isoniazid inhibits glutamate decarboxylase that catalyzes GABA biosynthesis, decrease brain GABA levels, and induces clonic convulsion. According to the method of Auta, J. et al. [cf., J. Pharmacol. Exp. Ther., 265, 649-656 (1993)] with slight modification, antagonistic effects of the test compounds on isoniazid-induced clonic convulsion were examined. […] Such drugs are BZ receptor agonists represented by diazepam, neurosteroids such as allopregnanolone, allotetrahydro-deoxycorticosterone (THDOC) and BZω3 receptor agonists, which enhance the synthesis of neurosteroids.
Male mice of Std-ddY strain weighing 22-24 g were used in a group of 6. Thirty minutes after oral administration of the test compounds, mice were injected with isoniazid (200 mg/kg) subcutaneously, and immediately thereafter, the mice were placed individually in plastic observation cages. The onset time of clonic convulsion was measured (cut-off time: 90 minutes). The latency in the control group was about 40 minutes.
Anti-isoniazid effect of the test compounds was expressed by the dose, which prolonged the onset time by 25% compared to that in the vehicle group (ED25). The ED25 value was calculated according to the Probit method.

[2] = molecular target: T1, BZω3 receptor (Rattus norvegicus, UniProt P16257); assay: BZω3 (peripheral) benzodiazepine receptor binding assay, [3H] 4'-chlorodiazepam (Ro 5-4864); conditions: rat kidney membrane, [3H] Ro 5-4864 0.5 nM, 150 minutes at 0° C.; read-out: ω3 IC50
T1 construct: from tissue; host or cells: rat (Wistar) kidney membrane fraction
Protocol: Experiment 1: Central (ω1,ω2) and Peripheral (ω3) Benzodiazepine Receptor Binding Assays
BZω1 and BZω2 receptor binding assays and the preparation of receptor membrane fractions therefor were carried out according to the method of Stephens, D. N. et al. [cf., J. Pharmacol. Exp. Ther., 253, 334-343 (1990)], and BZω3 receptor binding assay and the preparation of receptor membrane fraction therefor were done according to the method of Schoemaker, H. [cf, J. Pharmacol. Exp. Ther., 225, 61-69 (1983)] each with slight modification.
Receptor membrane fractions for ω1, ω2 and ω3 were prepared from the cerebellum (ω1), spinal cord (ω2) or kidney (ω3) in 7-8 week old male rats of Wistar strain, respectively, by the procedure described below.
After the cerebellum or spinal cord was homogenized with 20 volumes of ice-cold 50 mM Tris-citrate buffer (pH 7.1), the homogenate was centrifuged for 15 minutes at 40,000 g. The pellet obtained was washed 4 times by the same procedure, and frozen and stored for 24 hours at −60° C. The resulting pellet, after being thawed, washed with the buffer and centrifuged, was suspended in the buffer I for the binding assay (50 mM Tris-HCl buffer containing 120 mM NaCl, 5 mM KCl, 2 mM CaCl2 and 1 mM MgCl2; pH 7.4) and the suspension thus obtained (containing 1 g wet tissue/40 ml) was used for the BZω1 and BZω2receptor binding assays. On the other hand, the kidney was homogenized with 20 volumes of the ice-cold buffer II for the binding assay (50 mM Na-K phosphate buffer containing 100 mM NaCl; pH 7.4), and the mixture was filtered through 4 sheets of gauze, and centrifuged for 20 minutes at 40,000 g. The pellet obtained was suspended in the buffer II and the suspension (containing 1 g wet tissue/100 ml) was used for the binding assay as BZω3 receptor membrane source.
[^3H] Flumazenil (Ro 15-1788) (final concentration: 0.3 nM for ω1, and 1 nM for ω2) and flunitrazepam (final concentration: 10 μM) were used for the BZω1 or BZω2 receptor binding assays as the isotope-labeled and unlabeled ligands, respectively. For the BZω3 receptor binding assay, [^3H] 4′-chlorodiazepam (7-chloro-1,3-dihydro-1-methyl-5-(4-chlorophenyl)-2H-1,4-diazepin-2-one) (Ro 5-4864) (final concentration: 0.5 nM) and diazepam (final concentration: 100 μM) were used as the isotope-labeled and unlabeled ligands, respectively. Incubation was performed for 30 minutes at 37° C. in the BZω1 or BZω2 receptor binding assays, and for 150 minutes at 0° C. in the BZω3 receptor binding assay. The BZω1 or BZω2 receptor binding assays were carried out in the presence of bicuculline (final concentration: 100 μM).
The binding assay was performed by the following procedure. After adding each test compound at certain known concentrations, a [^3H] ligand, and the buffer I or II to each test tube, each assay was started by addition of membrane preparation (total volume of 1 ml). After incubation, the assay was terminated by filtration with suction through a Whatman GF/B glass fiber filter using a cell harvester (Brandel, USA). The filters were rapidly washed 3 times with 5 ml of ice-cold 50 mM Tris-HCl buffer (pH 7.7) for ω1 and ω2, or the buffer II for ω3, and transferred to scintillation vials containing 10 ml liquid scintillation cocktail (ACS-II, Amersham, USA). After being allowed to stand for a specific period, retained radioactivity was counted by a liquid scintillation spectrometer. Specific binding of [^3H] ligands was calculated as the difference between amounts of radioactivity bound in the presence and absence of excess unlabeled ligands. The concentration of the test compounds causing 50% inhibition of specific binding of the [3H] ligand (IC50) was determined by probit analysis.

[3] = test system: mice (stay in light compartment); assay: Light and dark box test (anti-anxiety effect); assay type: in vivo; conditions: Mus musculus, po, 0.5 h, male Std-ddY mice, 30 minutes before test, Dunnett test 5%, read-out: Anti-anxiety effect MED (minimum effective dose)
Description: Experiment 2: Light and Dark Box Test (Anti-anxiety Effect)
Anti-anxiety effect of test compounds was examined in a box with light and dark compartments according to the method of Crawley, J. and Goodwin, F. K. [cf., Pharmacol. Biochem. Behav., 13, 167-170 (1980)] with slight modification.
Light and dark box test is a useful, simple and handy method for behaviorally and pharmacologically examining anti-anxiety effect of the drugs, by utilizing the habit of rodents such as mice and rats, etc. which prefer to stay in a dark place, and regarding as positive drug effect the increase of the relative stay of the animals in the light compartment which is an uncomfortable place for the animals. A number of drugs such as cholecystokinin B type receptor antagonists and benzodiazepine drugs, show positive effect in this test.
Light and dark box test was carried out using the test box device (35×17×15 cm) which comprises: a light compartment (20×17×15 cm) consisting of transparent acrylic plates and highly illuminated by an incandescent lamp (1,700 lux); a dark compartment (15×17×15 cm) being made of black acrylic plates connected to the light compartment; and at the boundary of compartments, an opening (4.4×5.0 cm) in which mice can go through freely between two compartments.
Male mice of Std-ddY strain weighing 25-30 g were used in a group of 10. Each trial was started by placing a mouse in the center of the light compartment 30 minutes after oral administration of a test compound, and the time spent by the mouse in the light compartment during a 5 minute observation period was measured, and the rate of the stay of mice in the light compartment to the whole time spent in the experiment was calculated (rate of light compartment stay, %).
The anti-anxiety effect of the test compound was represented by the minimum effective dose (MED) at which the increasing rate of the relative stay in the light compartment was regarded as statistically significant (Dunnett test, significance level: 5%). 4.

[4] = test system: mice (lethality); assay: Acute toxicity; assay type: in vivo, mouse; conditions: male Std-ddY mice, oral 2000 mg/kg, observed for 7 days
Protocol: Experiment 4: Acute Toxicity
Male mice of Std-ddY strain weighing 25-30 g were used in a group of 10 animals for examining on the compound of Example 1. A test compound was suspended in 0.5% tragacanth and administered orally to the mice at a dose of 2000 mg/kg.

IC50 [2] [nM]	melting point [°C]	Compound	Anti-convulsant effect ED25 [1] [µg/kg]	minimal effective dose [3] [µg/kg]	lethality [4]
1.2	–	CCCN(CCC)C(=O)Cn1c(=O)n(C)c2cnc(-c3ccccc3)nc21 [Example 106, 7,8-dihydro-7-methyl-8-oxo-2-phenyl-N,N-dipropyl-9H-purin-9-acetamide]	100000	1 to 3	–
0.73	135 to 137	CCCN(CCC)C(=O)Cn1c(=O)n(C)c2cnc(-c3ccc(Cl)cc3)nc21 [Example 112]	73600	–	–
0.66	98 to 99	CCCN(CCC)C(=O)Cn1c(=O)n(CC)c2cnc(-c3ccccc3)nc21 [Example 107, 7-ethyl-7,8-dihydro-8-oxo-2-phenyl-N,N-dipropyl-9H-purin-9-acetamide]	33000	1 to 3	–

Compound	IC50 [2] [nM]	melting point [°C]	Anti-convulsant effect ED25 [1] [µg/kg]	minimal effective dose [3] [µg/kg]	lethality [4]
CCN(C(=O)Cn1c(=O)n(C)c2nc(-c3ccccc3)ncc21)c1ccccc1 [Example 1, N-ethyl-8,9-dihydro-9-methyl-8-oxo-2-phenyl-N-phenyl-7H-purin-7-acetamide]	2	–	–	1 to 3	no lethality

— patent publication US6372740B1, “2-aryl-8-oxodihydropurine derivative, process for the producing the same, medicinal compositions containing the same, and intermediates thereof” (Dainippon Pharmaceutical Co., Ltd., priority 1997, dated 2002)
